Earlier results as cited in patent US20100273711A1, “INDIVIDUALIZED CANCER TREATMENTS” (priority 2007, published 2010).

Key:
181/85p = settings: cell line 181/85p, pancreas ca; cited from earlier work
257p = settings: cell line 257p, gastric ca; cited from earlier work
A375 = settings: cell line A375, melanoma; cited from earlier work
BT20 = settings: cell line BT20, breast ca; cited from earlier work
C8161 = settings: cell line C8161, melanoma; cited from earlier work
CX-2 = settings: cell line CX-2, colon ca; cited from earlier work
Du145 = settings: cell line Du145, prostate ca; cited from earlier work
DV-90 = settings: cell line DV-90, lung ca; cited from earlier work
ES-2 = settings: cell line ES-2, ovarian ca; cited from earlier work
FU-OV-1 = settings: cell line FU-OV-1, ovarian ca; cited from earlier work
Hep3B = settings: cell line Hep3B, HCC; cited from earlier work
HRT-18 = settings: cell line HRT-18, colon ca; cited from earlier work
HT-29 = settings: cell line HT-29, colon ca; cited from earlier work
ME43 = settings: cell line ME43, melanoma; cited from earlier work
MeWo = settings: cell line MeWo, melanoma; cited from earlier work
OAW42 = settings: cell line OAW42, ovarian ca; cited from earlier work
OVCAR3 = settings: cell line OVCAR3, ovarian ca; cited from earlier work
R103 = settings: cell line R103, breast ca; cited from earlier work
R193 = settings: cell line R193, breast ca; cited from earlier work
SKBR3 = settings: cell line SKBR3, breast ca; cited from earlier work
SKMel19 = settings: cell line SKMel19, melanoma; cited from earlier work
SKOV-3 = settings: cell line SKOV-3, ovarian ca; cited from earlier work
SNU182 = settings: cell line SNU182, HCC; cited from earlier work
SNU423 = settings: cell line SNU423, HCC; cited from earlier work
SNU449 = settings: cell line SNU449, HCC; cited from earlier work
SNU475 = settings: cell line SNU475, HCC; cited from earlier work
SW13 = settings: cell line SW13, adrenal cortex carcinoma; cited from earlier work

SMILES: N.N.[Cl][Pt][Cl] [Cisplatin, cisplatin]
- Cisplatin Resistant (Res) or Sensitive (Sen) (181/85p): Res
- Cisplatin Resistant (Res) or Sensitive (Sen) (257p): Res
- Cisplatin Resistant (Res) or Sensitive (Sen) (A375): Res
- Cisplatin Resistant (Res) or Sensitive (Sen) (BT20): Sen
- Cisplatin Resistant (Res) or Sensitive (Sen) (C8161): Res
- Cisplatin Resistant (Res) or Sensitive (Sen) (CX-2): Res
- Cisplatin Resistant (Res) or Sensitive (Sen) (Du145): Res
- Cisplatin Resistant (Res) or Sensitive (Sen) (DV-90): Sen
- Cisplatin Resistant (Res) or Sensitive (Sen) (ES-2): Res
- Cisplatin Resistant (Res) or Sensitive (Sen) (FU-OV-1): Sen
- Cisplatin Resistant (Res) or Sensitive (Sen) (Hep3B): Res
- Cisplatin Resistant (Res) or Sensitive (Sen) (HRT-18): Res
- Cisplatin Resistant (Res) or Sensitive (Sen) (HT-29): Res
- Cisplatin Resistant (Res) or Sensitive (Sen) (ME43): Res
- Cisplatin Resistant (Res) or Sensitive (Sen) (MeWo): Res
- Cisplatin Resistant (Res) or Sensitive (Sen) (OAW42): Sen
- Cisplatin Resistant (Res) or Sensitive (Sen) (OVCAR3): Sen
- Cisplatin Resistant (Res) or Sensitive (Sen) (R103): Sen
- Cisplatin Resistant (Res) or Sensitive (Sen) (R193): Sen
- Cisplatin Resistant (Res) or Sensitive (Sen) (SKBR3): Res
- Cisplatin Resistant (Res) or Sensitive (Sen) (SKMel19): Res
- Cisplatin Resistant (Res) or Sensitive (Sen) (SKOV-3): Res
- Cisplatin Resistant (Res) or Sensitive (Sen) (SNU182): Res
- Cisplatin Resistant (Res) or Sensitive (Sen) (SNU423): Res
- Cisplatin Resistant (Res) or Sensitive (Sen) (SNU449): Res
- Cisplatin Resistant (Res) or Sensitive (Sen) (SNU475): Res
- Cisplatin Resistant (Res) or Sensitive (Sen) (SW13): Res
